Experimental data published in ChEMBL document CHEMBL1127385, “Synthesis and diuretic activity of alkyl- and arylguanidine analogs of N,N'-dicyclohexyl-4-morpholinecarboxamidine in rats and dogs” (J Med Chem, 1994).
Blank lines part the entries; values can stand above or below the molecule they belong to.

Tests used:
Rattus norvegicus [1] = assay: Total electrolytic excretion of chlorine in urine of rats after peroral administration of 83.8 uM/Kg of drug; format: ADME, organism-based; conditions: in vivo, po
Rattus norvegicus [2] = assay: Total electrolytic excretion of chlorine in urine of rats after peroral administration of 27.9 uM/Kg of drug; format: ADME, organism-based; conditions: in vivo, po
Rattus norvegicus [3] = assay: Total electrolytic excretion of chlorine in urine of rats after peroral administration of 279 uM/Kg of drug; format: ADME, organism-based; conditions: in vivo, po
Rattus norvegicus [4] = assay: Total electrolytic excretion of potassium in urine of rats after peroral administration of 27.9 uM/Kg of drug; format: ADME, organism-based; conditions: in vivo, po
Rattus norvegicus [5] = assay: Total electrolytic excretion of potassium in urine of rats after peroral administration of 83.8 uM/Kg of drug; format: ADME, organism-based; conditions: in vivo, po
Rattus norvegicus [6] = assay: Total electrolytic excretion of potassium in urine of rats after peroral administration of 279 uM/Kg of drug; format: ADME, organism-based; conditions: in vivo, po
Rattus norvegicus [7] = assay: Tested for the diuretic activity by measuring the urinary volume after peroral administering 83.8 uM/Kg of drug in rats; format: ADME, organism-based, Urine; conditions: in vivo, po
Rattus norvegicus [8] = assay: Total electrolytic excretion of sodium in urine of rats after peroral administration of 27.9 uM/Kg of drug; format: ADME, organism-based; conditions: in vivo, po
Rattus norvegicus [9] = assay: Total electrolytic excretion of sodium in urine of rats after peroral administration of 279 uM/Kg of drug; format: ADME, organism-based; conditions: in vivo, po
Rattus norvegicus [10] = assay: Total electrolytic excretion of sodium in urine of rats after peroral administration of 83.8 uM/Kg of drug; format: ADME, organism-based; conditions: in vivo, po
Rattus norvegicus [11] = assay: Tested for the diuretic activity by measuring the urinary volume after peroral administering 27.9 uM/Kg of drug in rats; format: ADME, organism-based, Urine; conditions: in vivo, po
Rattus norvegicus [12] = assay: Tested for the diuretic activity by measuring the urinary volume after peroral administering 279 uM/Kg of drug in rats; format: ADME, organism-based, Urine; conditions: in vivo, po
Rattus norvegicus [13] = assay: Ratio of Total electrolytic excretion of sodium and potassium in urine of rats after peroral administration of 279 uM/Kg of drug; format: ADME, organism-based; conditions: in vivo, po
Rattus norvegicus [14] = assay: Ratio of Total electrolytic excretion of sodium and potassium in urine of rats after peroral administration of 83.8 uM/Kg of drug; format: ADME, organism-based; conditions: in vivo, po
Rattus norvegicus [15] = assay: Ratio of Total electrolytic excretion of sodium and potassium in urine of rats after peroral administration of 27.9 uM/Kg of drug; format: ADME, organism-based; conditions: in vivo, po
Rattus norvegicus [16] = assay: Total electrolytic excretion of chlorine in urine of rats after peroral administration of 26.5 uM/Kg of drug; format: ADME, organism-based; conditions: in vivo, po
Rattus norvegicus [17] = assay: Total electrolytic excretion of chlorine in urine of rats after peroral administration of 265 uM/Kg of drug; format: ADME, organism-based; conditions: in vivo, po
Rattus norvegicus [18] = assay: Total electrolytic excretion of chlorine in urine of rats after intravenous administration of 7.94 uM/Kg of drug; format: ADME, organism-based; conditions: in vivo
Rattus norvegicus [19] = assay: Total electrolytic excretion of sodium in urine of rats after intravenous administration of 7.94 uM/Kg of drug; format: ADME, organism-based; conditions: in vivo
Rattus norvegicus [20] = assay: Total electrolytic excretion of chlorine in urine of rats after peroral administration of 79.4 uM/Kg of drug; format: ADME, organism-based; conditions: in vivo, po
Rattus norvegicus [21] = assay: Total electrolytic excretion of potassium in urine of rats after peroral administration of 7.94 uM/Kg of drug; format: ADME, organism-based; conditions: in vivo, po
Rattus norvegicus [22] = assay: Total electrolytic excretion of potassium in urine of rats after peroral administration of 79.4 uM/Kg of drug; format: ADME, organism-based; conditions: in vivo, po
Rattus norvegicus [23] = assay: Tested for the diuretic activity by measuring the urinary volume after peroral administering 79.4 uM/Kg of drug in rats; format: ADME, organism-based, Urine; conditions: in vivo, po
Rattus norvegicus [24] = assay: Total electrolytic excretion of sodium in urine of rats after peroral administration of 26.5 uM/Kg of drug; format: ADME, organism-based; conditions: in vivo, po
Rattus norvegicus [25] = assay: Total electrolytic excretion of sodium in urine of rats after peroral administration of 265 uM/Kg of drug; format: ADME, organism-based; conditions: in vivo, po
Rattus norvegicus [26] = assay: Total electrolytic excretion of sodium in urine of rats after peroral administration of 79.4 uM/Kg of drug; format: ADME, organism-based; conditions: in vivo, po
Rattus norvegicus [27] = assay: Tested for the diuretic activity by measuring the urinary volume after peroral administering 26.5 uM/Kg of drug in rats; format: ADME, organism-based, Urine; conditions: in vivo, po
Rattus norvegicus [28] = assay: Tested for the diuretic activity by measuring the urinary volume after peroral administering 265 uM/Kg of drug in rats; format: ADME, organism-based, Urine; conditions: in vivo, po
Rattus norvegicus [29] = assay: Total electrolytic excretion of potassium in urine of rats after peroral administration of 265 uM/Kg of drug; format: ADME, organism-based; conditions: in vivo, po
Rattus norvegicus [30] = assay: Ratio of Total electrolytic excretion of sodium and potassium in urine of rats after peroral administration of 26.5 uM/Kg of drug; format: ADME, organism-based; conditions: in vivo, po
Rattus norvegicus [31] = assay: Ratio of Total electrolytic excretion of sodium and potassium in urine of rats after peroral administration of 265 uM/Kg of drug; format: ADME, organism-based; conditions: in vivo, po
Rattus norvegicus [32] = assay: Ratio of Total electrolytic excretion of sodium and potassium in urine of rats after intravenous administration of 7.94 uM/Kg of drug; format: ADME, organism-based; conditions: in vivo
Rattus norvegicus [33] = assay: Ratio of Total electrolytic excretion of sodium and potassium in urine of rats after peroral administration of 79.4 uM/Kg of drug; format: ADME, organism-based; conditions: in vivo, po
Rattus norvegicus [34] = assay: Total electrolytic excretion of potassium in urine of rats after peroral administration of 26.5 uM/Kg of drug; format: ADME, organism-based; conditions: in vivo, po
Rattus norvegicus [35] = assay: Total electrolytic excretion of potassium in urine of rats after peroral administration of 0 uM/Kg of drug; format: ADME, organism-based; conditions: in vivo, po
Rattus norvegicus [36] = assay: Total electrolytic excretion of sodium in urine of rats after peroral administration of 0 uM/Kg of drug; format: ADME, organism-based; conditions: in vivo, po
Rattus norvegicus [37] = assay: Tested for the diuretic activity by measuring the urinary volume after peroral administering 0 uM/Kg of drug in rats; format: ADME, organism-based, Urine; conditions: in vivo, po

- Excretion Cl- (Rattus norvegicus [1]): 1.63 m equiv
- Excretion Cl- (Rattus norvegicus [2]): 1.37 m equiv
- Excretion Cl- (Rattus norvegicus [3]): 1.66 m equiv
- Excretion K+ (Rattus norvegicus [4]): 0.32 m equiv
- Excretion K+ (Rattus norvegicus [5]): 0.31 m equiv
- Excretion K+ (Rattus norvegicus [6]): 0.28 m equiv
- V (Rattus norvegicus [7]): 9.7 mL
- Excretion Na+ (Rattus norvegicus [8]): 1.21 m equiv
- Excretion Na+ (Rattus norvegicus [9]): 1.54 m equiv
- Excretion Na+ (Rattus norvegicus [10]): 1.53 m equiv
- V (Rattus norvegicus [11]): 8.4 mL
- V (Rattus norvegicus [12]): 9.1 mL
- Ratio (Rattus norvegicus [13]): 5.6
- Ratio (Rattus norvegicus [14]): 5
- Ratio (Rattus norvegicus [15]): 3.8
SMILES: C1CCCC(/N=C(/NC2CCCCCC2)N2CCOCC2)CC1

- Excretion Cl- (Rattus norvegicus [16]): 1.4 m equiv
- Excretion Cl- (Rattus norvegicus [17]): 1.86 m equiv
- Excretion Cl- (Rattus norvegicus [18]): 6.5 m equiv
- Excretion Na+ (Rattus norvegicus [19]): 7.8 m equiv
- Excretion Cl- (Rattus norvegicus [20]): 1.7 m equiv
- Excretion K+ (Rattus norvegicus [21]): 1.3 m equiv
- Excretion K+ (Rattus norvegicus [22]): 0.35 m equiv
- V (Rattus norvegicus [23]): 12.3 mL
- Excretion Na+ (Rattus norvegicus [24]): 1.44 m equiv
- Excretion Na+ (Rattus norvegicus [25]): 2.05 m equiv
- Excretion Na+ (Rattus norvegicus [26]): 1.71 m equiv
- V (Rattus norvegicus [27]): 9.5 mL
- V (Rattus norvegicus [28]): 17.4 mL
- Excretion K+ (Rattus norvegicus [29]): 0.29 m equiv
- Ratio (Rattus norvegicus [30]): 4.4
- Ratio (Rattus norvegicus [31]): 6.1
- Ratio (Rattus norvegicus [32]): 6.5
- Ratio (Rattus norvegicus [33]): 4.8
- Excretion K+ (Rattus norvegicus [34]): 0.33 m equiv
SMILES: Cc1cccc(C)c1N/C(=N/C1CCCCC1)N1CCOCC1

- Excretion K+ (Rattus norvegicus [35]): 0.24 m equiv
- Excretion Na+ (Rattus norvegicus [36]): 0.65 m equiv
- V (Rattus norvegicus [37]): 4.4 mL
SMILES: NS(=O)(=O)c1cc(C(=O)O)c(NCc2ccco2)cc1Cl [FUROSEMIDE]
